Consider 2 molecules from publication PMC11496704, “Synthesis and cytotoxicity studies of novel N-arylbenzo[h]quinazolin-2-amines” (Beilstein Journal of Organic Chemistry, 2024).

One series concerns DYRKs kinases. Also on record: method as in PMID 33422908, PMID 36234686. The following applies: at 100 μM; cited from earlier work.
Another series relates to HuH-7. Description: Cytotoxicity secondary screen (IC50). The class given is cell-based. The following applies: Homo sapiens, 48 h exposure, mean of triplicates, NE: no effect. As for the experimental part:
(§1) Cell culture. Skin normal fibroblastic cells are purchased from Lonza (Basel, Switzerland), HuH-7, Caco-2, MDA-MB-231, HCT-116, PC3, MCF7 and NCI-H727 cancer cell lines were obtained from ATCC (American Type Culture Collection). Cells are grown at 37 °C, 5% CO2 in ATCC recommended media: DMEM for HuH-7, MDA-MB-231, MDA-MB-468 and fibroblast, EMEM for MCF7 and CaCo-2, McCoy’s for HCT-116 and RPMI for PC3 and NCI-H727. All culture media are supplemented by 10% of FBS, 1% of penicillin-streptomycin and 2 mM glutamine.
(§2) Both studies have been performed following the protocols described in a previous paper, see ref. [2].

In series [1] the test system is PC3. In words: Cytotoxicity secondary screen (IC50). The class given is cell-based. The conditions noted are these: Homo sapiens, PC-3; 48 h exposure, mean of triplicates; NE: no effect. The procedure:
as §1, §2

Series [2] deals with Caco-2. In words: Cytotoxicity secondary screen (IC50). The class given is cell-based. The following applies: Homo sapiens, 48 h exposure, mean of triplicates, NE: no effect. The procedure:
(§3) Next, we performed a cytotoxicity screening of the nineteen molecules 4a–s, at 25 μM, investigating seven representative cancer cell lines: hepatocellular carcinoma HuH-7, colorectal adenocarcinoma CaCo-2, breast carcinoma MDA-MB-231 and MDA-MB-468, colorectal carcinoma HCT-116, prostate carcinoma PC3 and breast carcinoma MCF7. […] For details see: ref. [2] and Supporting Information File 1, Table S1.
as §1, §2

For another series, the system named is HCT-116. Description: Cytotoxicity secondary screen (IC50). The class given is cell-based. The conditions noted are these: Homo sapiens, 48 h exposure, mean of triplicates, NE: no effect. The procedure: as §3, §1, §2
Series [3] has as its system Caco-2. In words: Cytotoxicity primary screen (single dose). The class given is cell-based. The following applies: reference compound at 0.025 M (so in the source), 48 h exposure, mean of triplicates. As for the experimental part:
as §3, §1, §2
(§4) Table S1: Cytotoxicity studies (single dose at 25µM) of N-arylbenzo[h]quinazolin-2-amines 4a–s
(§5) The toxicity is expressed as the percentage of cell survival (from 100 % to 0 %) over DMSO control after 48 h exposure (mean of triplicates).
(§6) Effect of the solvent (DMSO) was studied at 0.25%.

A further series concerns HCT116. In words: Cytotoxicity primary screen (single dose). The class given is cell-based. Further details: viability: dose or concentration left out as unconfirmed. The following applies: Homo sapiens, HCT-116; 48 h exposure, mean of triplicates; read-out: percentage of cell survival over DMSO control, HCT116. As for the experimental part:
as §3, §1, §2, §4, §5, §6

For series [4], the system named is MCF7. In words: Cytotoxicity primary screen (single dose). The class given is cell-based. The following applies: Homo sapiens, 48 h exposure, mean of triplicates, read-out: percentage of cell survival over DMSO control, MCF7. Also on record: viability: dose or concentration left out as unconfirmed. As for the experimental part: as §3, §1, §2, §4, §5, §6
In the next series the test system is MDA231. Description: Cytotoxicity primary screen (single dose). The conditions noted are these: Homo sapiens, MDA-MB-231; 48 h exposure, mean of triplicates; read-out: percentage of cell survival over DMSO control, MDA231. Further details: viability: dose or concentration left out as unconfirmed. The class given is cell-based. The procedure:
as §3, §1, §2, §4, §5, §6

The subject of series [5] is PC3. Description: Cytotoxicity primary screen (single dose). The class given is cell-based. Also on record: viability: dose or concentration left out as unconfirmed. The conditions noted are these: Homo sapiens, PC-3; 48 h exposure, mean of triplicates; read-out: percentage of cell survival over DMSO control, PC3. The procedure: as §3, §1, §2, §4, §5, §6
The test system of another series is MDA-MB-231. Description: Cytotoxicity secondary screen (IC50). The class given is cell-based. The following applies: Homo sapiens, 48 h exposure, mean of triplicates, NE: no effect.
Another series relates to MDA-MB-468. In words: Cytotoxicity secondary screen (IC50). The class given is cell-based. The conditions noted are these: Homo sapiens, 48 h exposure, mean of triplicates, NE: no effect.
Series [6] relates to MCF7. In words: Cytotoxicity secondary screen (IC50). The following applies: Homo sapiens, 48 h exposure, mean of triplicates, NE: no effect. The class given is cell-based.
The subject of the next series is HuH7. Description: Cytotoxicity primary screen (single dose). The class given is cell-based. Also on record: dose or concentration left out as unconfirmed. The conditions noted are these: Homo sapiens, Huh-7; 48 h exposure, mean of triplicates; read-out: percentage of cell survival over DMSO control, HuH7.

The term IC50 denotes the point on the concentration scale where inhibition reaches its midpoint.

For `Cc1ccc(-n2cc(COc3cccc4cnc(Nc5cccc(Cl)c5)nc34)nn2)c([N+](=O)[O-])c1` [DB18], in the series on DYRKs kinases, the “action against DYRKs kinases” value is reported as “does not show any action”.
Take `CC(=O)O[C@H]1C(=O)[C@@]2(C)[C@H]([C@H](OC(=O)c3ccccc3)[C@]3(O)C[C@H](OC(=O)[C@H](O)[C@@H](NC(=O)c4ccccc4)c4ccccc4)C(C)=C1C3(C)C)[C@]1(OC(C)=O)CO[C@@H]1C[C@@H]2O` [Taxol, reference compound]: the 50% inhibitory concentration (IC50) in the series with HuH-7 was found to be 9 nM; in the series with PC3 [1], 4 nM; with Caco-2 [2], 70 nM; with HCT-116, 3 nM; in the series with MDA-MB-231, 20 nM; with MDA-MB-468, 6 nM. The molecule further had an IC50 in the series with MCF7 [6] of 20 nM. Further, the “percentage of cell survival over DMSO control, CaCo-2” value in the series with Caco-2 [3] is given as 36%. In addition, the viability turned out to be 7% with HCT116; 27% in the series on MCF7 [4]; 32% with MDA231; 30% in the series with PC3 [5]; 43% with HuH7.
